Reference: PMC12005229, “Final results from the phase Ia/Ib study of the novel bromodomain and extra-terminal domain inhibitor, BI 894999, in patients with advanced solid tumors or diffuse large B-cell lymphoma” (ESMO Open, 2025)
Several values for one entry are separate records, joined by “and”; a condition that tells them apart may be missing. Identical values can stand only once. Entries after “also recorded” stand apart in the source; their conditions may differ.

Tested on: patients with advanced solid tumors (SCLC, CRC, mCRPC, NUT carcinoma)
Assay: phase Ib expansion: DLTs, adverse events, exposure
Conditions: for DLT / DLT grade / DLT outcome / DLT duration: individual patient events; for patients with DLTs: phase Ib schedule B
[1] = phase Ib CRC, schedule B 2.5 mg
[2] = phase Ib NUT carcinoma, schedule B 2.5 mg
[3] = phase Ib NUT carcinoma, schedule C 6.0/3.0 mg
[4] = phase Ib SCLC, schedule B 2.5 mg
[5] = phase Ib mCRPC, schedule B 2.5 mg
[6] = phase Ib, NUT carcinoma total n = 42

Text: The primary endpoint for the phase Ib expansion was the number of patients who experienced DLTs during the study treatment period.
For fatigue at baseline, there had to be an increase of two or more grades.

CNc1nc(-c2nc3ccc(N4CCN(C)CC4)cc3n2Cc2ccccc2)cn2c(C)nnc12 [BI 894999]
most frequent DLT (phase Ia DLBCL extension and phase Ib): grade 4 thrombocytopenia | discontinuation because of DLT (phase Ib): 3.8% | discontinuation because of other AEs (phase Ib): 10.1% | discontinuation because of progressive disease (phase Ib): 78.5% | dose continuations due to AEs (phase Ib): 13.9% | dose reductions due to AEs (phase Ib): 16.5% | median time to first dose reduction (phase Ib): 35.5 days | patients who died because of AEs (phase Ib): 8.9% | patients who required a dose reduction (phase Ib): 20.3% | patients with AEs of any grade (phase Ib): 100% | patients with treatment-related AEs (phase Ib): 83.5% | thrombocytopenia leading to dose discontinuation (phase Ib): 2.5% | DLT [1]: Dermatitis acneiform; also recorded: Thrombocytopenia | DLT grade [1]: 3 and 4 | DLT outcome [1]: Not recovered | DLT [2]: Decreased platelet count | DLT duration [2]: 6 days | DLT grade [2]: 4 | DLT outcome [2]: Not recovered | DLT [3]: Pleural effusion; also recorded: Fatigue; also recorded: Diarrhea; also recorded: Decreased platelet count | DLT duration [3]: 3 days and 16 days and 36 days | DLT grade [3]: 3 and 4 | DLT outcome [3]: Recovered; also recorded: Not recovered | DLT [4]: Laryngeal inflammation; also recorded: Thrombocytopenia; also recorded: Decreased appetite; also recorded: Fatigue; also recorded: Troponin T increased | DLT duration [4]: 4 days and 9 days and 11 days and 6 days | DLT grade [4]: 3 and 4 | DLT outcome [4]: Not recovered; also recorded: Recovered | DLT [5]: Thrombocytopenia; also recorded: Decreased platelet count; also recorded: Troponin T increased; also recorded: Stomatitis; also recorded: Nausea; also recorded: Decreased appetite; also recorded: Hypophosphatemia | DLT duration [5]: 40 days and 4 days and 3 days and 8 days and 12 days and 22 days | DLT grade [5]: 4 and 3 | DLT outcome [5]: Not recovered; also recorded: Recovered | patients with DLTs (CRC): 2 n | patients with DLTs (NUT carcinoma): 2 n | patients with DLTs (SCLC): 3 n | patients with DLTs (mCRPC): 7 n | ALT increase, treatment-related AE, any grade (phase Ib, CRC n = 14): 0 n (%) | ALT increase, treatment-related AE, grade ≥3 (phase Ib, CRC n = 14): 0 n (%) | Anemia, treatment-related AE, any grade (phase Ib, CRC n = 14): 3 (21.4) n (%) | Anemia, treatment-related AE, grade ≥3 (phase Ib, CRC n = 14): 2 (14.3) n (%) | Decreased appetite, treatment-related AE, any grade (phase Ib, CRC n = 14): 5 (35.7) n (%) | Decreased appetite, treatment-related AE, grade ≥3 (phase Ib, CRC n = 14): 0 n (%) | Decreased platelet count, treatment-related AE, any grade (phase Ib, CRC n = 14): 1 (7.1) n (%) | Decreased platelet count, treatment-related AE, grade ≥3 (phase Ib, CRC n = 14): 1 (7.1) n (%) | Diarrhea, treatment-related AE, any grade (phase Ib, CRC n = 14): 6 (42.9) n (%) | Diarrhea, treatment-related AE, grade ≥3 (phase Ib, CRC n = 14): 2 (14.3) n (%) | Dysgeusia, treatment-related AE, any grade (phase Ib, CRC n = 14): 3 (21.4) n (%) | Dysgeusia, treatment-related AE, grade ≥3 (phase Ib, CRC n = 14): 0 n (%) | Epistaxis, treatment-related AE, any grade (phase Ib, CRC n = 14): 1 (7.1) n (%) | Epistaxis, treatment-related AE, grade ≥3 (phase Ib, CRC n = 14): 0 n (%) | Fatigue, treatment-related AE, any grade (phase Ib, CRC n = 14): 4 (28.6) n (%) | Fatigue, treatment-related AE, grade ≥3 (phase Ib, CRC n = 14): 0 n (%) | Nausea, treatment-related AE, any grade (phase Ib, CRC n = 14): 3 (21.4) n (%) | Nausea, treatment-related AE, grade ≥3 (phase Ib, CRC n = 14): 0 n (%) | Number of patients with treatment-related AEs (phase Ib, CRC n = 14): 12 (85.7) n (%) | Thrombocytopenia, treatment-related AE, any grade (phase Ib, CRC n = 14): 5 (35.7) n (%) | Thrombocytopenia, treatment-related AE, grade ≥3 (phase Ib, CRC n = 14): 3 (21.4) n (%) | Vomiting, treatment-related AE, any grade (phase Ib, CRC n = 14): 3 (21.4) n (%) | Vomiting, treatment-related AE, grade ≥3 (phase Ib, CRC n = 14): 2 (14.3) n (%) | Weight decrease, treatment-related AE, any grade (phase Ib, CRC n = 14): 1 (7.1) n (%) | Weight decrease, treatment-related AE, grade ≥3 (phase Ib, CRC n = 14): 0 n (%) | ALT increase, treatment-related AE, any grade [6]: 5 (11.9) n (%) | ALT increase, treatment-related AE, grade ≥3 [6]: 0 n (%) | Anemia, treatment-related AE, any grade [6]: 11 (26.2) n (%) | Anemia, treatment-related AE, grade ≥3 [6]: 6 (14.3) n (%) | Decreased appetite, treatment-related AE, any grade [6]: 1 (2.4) n (%) | Decreased appetite, treatment-related AE, grade ≥3 [6]: 0 n (%) | Decreased platelet count, treatment-related AE, any grade [6]: 15 (35.7) n (%) | Decreased platelet count, treatment-related AE, grade ≥3 [6]: 7 (16.7) n (%) | Diarrhea, treatment-related AE, any grade [6]: 8 (19.0) n (%) | Diarrhea, treatment-related AE, grade ≥3 [6]: 1 (2.4) n (%) | Dysgeusia, treatment-related AE, any grade [6]: 5 (11.9) n (%) | Dysgeusia, treatment-related AE, grade ≥3 [6]: 0 n (%) | Epistaxis, treatment-related AE, any grade [6]: 1 (2.4) n (%) | Epistaxis, treatment-related AE, grade ≥3 [6]: 0 n (%) | Fatigue, treatment-related AE, any grade [6]: 10 (23.8) n (%) | Fatigue, treatment-related AE, grade ≥3 [6]: 4 (9.5) n (%) | Nausea, treatment-related AE, any grade [6]: 2 (4.8) n (%) | Nausea, treatment-related AE, grade ≥3 [6]: 0 n (%) | Number of patients with treatment-related AEs [6]: 32 (76.2) n (%) | Thrombocytopenia, treatment-related AE, any grade [6]: 10 (23.8) n (%) | Thrombocytopenia, treatment-related AE, grade ≥3 [6]: 6 (14.3) n (%)
